Measurements taken from the supplement of paper PMC10307832.

How the values were obtained:
[1] = compound: Cc1ccc(C(=O)N(CCCN)[C@@H](c2nc3cc(Cl)ccc3c(=O)n2Cc2ccccc2)C(C)C)cc1 [Ispinesib]; assay: relative viability (nuclei count vs DMSO), 5 days (fraction); higher = more cells survive
How it was run: (§1)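 Hoechst staining, done together with fixation and permeabilisation, marked nuclei for 4× imaging and MetaXpress counting. This followed 5 days without medium change after lung cancer cell lines, kept overnight at 37 °C in 1536-well plates, were pinned with five library-drug doses (not always all listed) spaced by √10 on vehicle-anchored plates. Viability is the ratio of treated-well to vehicle-well nuclei, expressed as a median across plates. Plates passed only at control CV below 25% with at least one doubling.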

[2] = compound: C[C@]1(O)C[C@@H](c2nc(-c3ccc4ccc(-c5ccccc5)nc4c3)c3c(N)nccn32)C1 [Linsitinib]; assay: as above
How it was run: as §1

Cell Line | relative viability ([1]; 0.001 µM) | relative viability ([1]; 0.003162 µM) | relative viability ([1]; 0.01 µM) | relative viability ([1]; 0.03162 µM) | relative viability ([1]; 0.1 µM) | relative viability ([2]; 0.01 µM) | relative viability ([2]; 0.03162 µM) | relative viability ([2]; 0.1 µM) | relative viability ([2]; 0.3162 µM) | relative viability ([2]; 1 µM) | relative viability ([2]; 1 µM, anchor plate)
NCI-H522 | 0.965 | 1.13 | 1 | 0.815 | 0.48 | 0.969 | 0.927 | 0.838 | 0.742 | 0.872 | –
PC-3 [JPC-3] | 1.06 | 1.15 | 1.09 | 0.909 | 0.533 | 1.04 | 1.06 | 1.1 | 0.947 | 0.916 | 0.949
NCI-H1703 | 1.28 | 0.88 | 0.6 | 0.163 | 0.137 | 0.881 | – | 0.873 | 0.577 | 0.492 | 0.9
EPLC-272H | 0.868 | 1.04 | 0.909 | 0.342 | 0.151 | 1.02 | 1.01 | 0.799 | – | 0.879 | 1.19
NCI-H1792 | 1.18 | 1.31 | 0.995 | 0.492 | 0.329 | 0.932 | 0.897 | 0.712 | 0.455 | 0.33 | 0.571
NCI-H2085 | 1.02 | 1.02 | 1.06 | 0.854 | 0.536 | 0.93 | 1 | 1.05 | 0.915 | 0.906 | 0.888
LK-2 | 1.13 | 1.19 | 1.17 | 0.705 | 0.348 | 0.994 | 1.09 | 0.919 | 0.594 | 0.744 | 0.6
NCI-H1395 | 0.95 | 1.06 | 0.854 | 0.44 | 0.354 | 0.935 | 0.79 | 1.03 | 0.806 | 0.893 | 1.17
ABC-1 | 1.01 | 1.01 | 0.979 | 0.314 | 0.367 | 0.88 | 0.789 | 0.993 | 0.617 | 0.533 | 0.859
RERF-LC-KJ | 1.04 | 0.975 | 1.03 | 0.684 | 0.331 | 1 | 1.01 | 0.949 | 0.682 | 0.871 | 0.878
LU99A | 0.976 | 1.01 | 1.03 | 0.303 | 0.269 | 0.915 | 0.968 | 0.899 | 0.483 | 0.738 | 0.555
NCI-H650 | 1.01 | 1.14 | 1.02 | 0.629 | 0.212 | 0.889 | 0.996 | 0.875 | – | 0.783 | 0.914
NCI-H2347 | 1.03 | 1.1 | 1.13 | 0.897 | 0.87 | 1.09 | 1.19 | 0.981 | 0.805 | 0.942 | 0.935
HARA | 1.04 | 1.16 | 1.06 | 0.872 | 0.169 | 1.07 | 0.837 | 0.967 | 0.697 | 0.807 | 0.948
NCI-H2228 | 1.03 | 1 | 1.38 | 0.688 | 0.344 | 0.882 | 0.873 | 0.768 | 0.752 | 0.746 | 0.741
EKVX | 0.996 | 0.993 | 1.07 | 0.856 | 0.573 | 0.99 | 0.991 | 0.999 | 0.739 | 0.832 | 1.01

Cell Line | relative viability ([1]; 0.001 µM) | relative viability ([1]; 0.003162 µM) | relative viability ([1]; 0.01 µM) | relative viability ([1]; 0.03162 µM) | relative viability ([1]; 0.1 µM) | relative viability ([2]; 0.01 µM) | relative viability ([2]; 0.03162 µM) | relative viability ([2]; 0.1 µM) | relative viability ([2]; 0.3162 µM) | relative viability ([2]; 1 µM) | relative viability ([2]; 1 µM, anchor plate)
HCC-827 | 1.08 | 1.07 | 1.02 | 0.929 | 0.876 | 1.06 | 1.02 | 1.09 | – | 1.01 | 0.967
NCI-H1755 | 0.972 | 1.1 | 1.1 | 0.745 | 0.351 | 0.976 | 1.01 | 1.01 | 0.769 | 0.915 | 0.996
NCI-H661 | 0.968 | 0.983 | 0.993 | 0.742 | 0.289 | 0.926 | 1.09 | 1.01 | 0.853 | 1.04 | 0.63
NCI-H1944 | 1.02 | 0.997 | 1.07 | 0.425 | 0.306 | 1.03 | 1.08 | 0.949 | 0.579 | 0.535 | 1.2
NCI-H23 | 0.859 | 1.06 | 1.04 | 0.298 | 0.226 | 1.06 | 0.862 | 0.903 | 0.509 | 0.578 | 0.631
SW 900 | 0.858 | 0.995 | 1.05 | 0.683 | 0.283 | 0.885 | 0.986 | 0.862 | 0.538 | 0.477 | –
NCI-H2342 | 0.986 | 0.942 | 1.04 | 0.935 | 0.638 | 0.889 | 1.07 | 0.86 | 1.01 | 0.768 | –
HCC-366 | 1.03 | 1.03 | 1.08 | 0.935 | 0.0315 | 1 | 0.989 | 0.925 | 0.917 | 0.938 | 0.658
EBC-1 | 1.03 | 1.13 | 1.03 | 0.336 | 0.231 | 0.991 | 0.967 | 1.05 | 0.778 | 0.93 | 0.903
ChaGo-K-1 | 1.05 | 1.06 | 1.12 | 0.91 | 0.354 | 1.04 | 0.962 | 1.02 | 0.681 | 0.882 | –
LCLC-97TM1 | 1.02 | 0.964 | 1.18 | 0.6 | 0.132 | 0.901 | 1.01 | 0.99 | 0.329 | 0.477 | 0.186
NCI-H1299 | 1.05 | 1.05 | 1.07 | 1.05 | 0.461 | 1.01 | 0.999 | 1.02 | 0.918 | 1.02 | 0.977
EMC-BAC-2 | 1.04 | 1.26 | 1.11 | 0.395 | 0.421 | 0.922 | 0.984 | 0.931 | 0.725 | 0.602 | 0.833
NCI-H1623 | 1.07 | 1.03 | 1.05 | 1.02 | 0.722 | 0.889 | 0.955 | 0.889 | – | 0.815 | –
NCI-H441 | 1.06 | 1.1 | 0.765 | 0.272 | 0.297 | 0.951 | 0.981 | 0.986 | 0.497 | 0.636 | 0.519
LCLC-103H | 1.05 | 1.07 | 1.04 | 0.691 | 0.601 | 1.01 | 0.89 | 0.976 | 0.823 | 0.879 | 1.06
